Experimental data as given in patent US20090311217A1, “3-SUBSTITUTED-1H-INDOLE COMPOUNDS, THEIR USE AS MTOR KINASE AND PI3 KINASE INHIBITORS, AND THEIR SYNTHESES” (priority 2008, published 2009).

Tests used:
Format in all cases: biochemical
human TOR = molecular target: T1, human TOR (Homo sapiens, UniProt P42345); test: mTOR enzyme assay (DELFIA, His6-S6K substrate); conditions: read-out: mTOR Kinase Avg. IC50
T1 construct: FLAG

PI3K-alpha = PI3K-alpha (Homo sapiens, UniProt P42336); test: PI3K-alpha fluorescence polarization assay; conditions: read-out: PI3Kα Avg. IC50
PI3K-gamma = PI3K-gamma (Homo sapiens, UniProt P48736); test: PI3K-gamma fluorescence polarization assay; conditions: PI3Kγ Avg. IC50
How it was run: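 Reactions in 5 mM HEPES pH 7, 2.5 mM MgCl2, 25 μM ATP with 2.5 μM diC8-PI(4,5)P2 and 5 ng enzyme, 1 h at 25° C, then EDTA quench. Product detected by FP using GST-GRP1 PH domain (100 nM) and BODIPY-TMR-IP4 tracer (5 nM); final DMSO 0.8%.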

Sequence of PI3K-alpha (P42336 whole entry, species assumed): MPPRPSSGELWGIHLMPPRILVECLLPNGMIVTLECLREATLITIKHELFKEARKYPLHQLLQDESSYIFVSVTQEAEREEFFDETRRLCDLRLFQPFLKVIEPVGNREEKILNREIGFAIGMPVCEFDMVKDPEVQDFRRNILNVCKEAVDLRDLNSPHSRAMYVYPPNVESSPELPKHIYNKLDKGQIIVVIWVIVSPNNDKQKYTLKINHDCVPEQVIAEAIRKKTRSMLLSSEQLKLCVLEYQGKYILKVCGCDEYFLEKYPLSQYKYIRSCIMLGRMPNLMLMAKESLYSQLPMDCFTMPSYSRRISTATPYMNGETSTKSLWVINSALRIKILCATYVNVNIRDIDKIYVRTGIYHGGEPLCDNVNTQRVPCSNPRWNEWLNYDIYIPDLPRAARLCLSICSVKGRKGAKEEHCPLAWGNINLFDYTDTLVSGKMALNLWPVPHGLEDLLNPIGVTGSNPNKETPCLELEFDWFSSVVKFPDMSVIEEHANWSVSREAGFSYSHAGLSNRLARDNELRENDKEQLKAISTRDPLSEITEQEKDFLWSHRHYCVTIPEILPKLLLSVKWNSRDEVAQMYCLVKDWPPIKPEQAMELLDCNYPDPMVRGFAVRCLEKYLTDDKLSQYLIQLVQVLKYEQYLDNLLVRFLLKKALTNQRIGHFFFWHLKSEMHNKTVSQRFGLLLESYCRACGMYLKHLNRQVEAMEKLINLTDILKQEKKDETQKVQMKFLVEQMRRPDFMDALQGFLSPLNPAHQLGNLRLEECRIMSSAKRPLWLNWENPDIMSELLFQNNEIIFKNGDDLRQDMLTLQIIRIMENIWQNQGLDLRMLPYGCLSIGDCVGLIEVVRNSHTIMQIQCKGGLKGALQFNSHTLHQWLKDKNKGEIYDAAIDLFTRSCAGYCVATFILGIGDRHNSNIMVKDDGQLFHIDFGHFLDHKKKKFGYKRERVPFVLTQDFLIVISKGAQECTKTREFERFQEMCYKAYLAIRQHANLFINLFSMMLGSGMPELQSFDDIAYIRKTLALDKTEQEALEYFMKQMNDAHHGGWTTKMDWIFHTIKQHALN
Sequence of PI3K-alpha (P27986 whole entry partner, species assumed): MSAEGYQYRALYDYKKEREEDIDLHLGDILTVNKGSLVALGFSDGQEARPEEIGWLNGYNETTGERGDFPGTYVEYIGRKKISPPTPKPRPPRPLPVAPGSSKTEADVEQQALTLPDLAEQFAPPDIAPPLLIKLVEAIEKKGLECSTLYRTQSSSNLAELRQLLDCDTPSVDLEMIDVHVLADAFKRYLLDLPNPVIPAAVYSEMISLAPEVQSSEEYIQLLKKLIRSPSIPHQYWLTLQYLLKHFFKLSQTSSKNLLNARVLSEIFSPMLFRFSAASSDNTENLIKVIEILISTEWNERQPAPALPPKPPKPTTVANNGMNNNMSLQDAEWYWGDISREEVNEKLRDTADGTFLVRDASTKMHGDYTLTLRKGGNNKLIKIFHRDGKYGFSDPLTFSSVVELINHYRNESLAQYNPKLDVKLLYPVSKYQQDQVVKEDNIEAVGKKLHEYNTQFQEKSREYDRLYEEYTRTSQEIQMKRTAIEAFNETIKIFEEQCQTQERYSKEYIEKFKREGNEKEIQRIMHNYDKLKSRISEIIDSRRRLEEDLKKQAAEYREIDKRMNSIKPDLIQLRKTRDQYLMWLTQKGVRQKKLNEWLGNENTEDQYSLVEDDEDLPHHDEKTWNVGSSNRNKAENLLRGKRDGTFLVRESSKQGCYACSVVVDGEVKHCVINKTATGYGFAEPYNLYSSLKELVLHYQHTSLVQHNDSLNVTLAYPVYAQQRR
Sequence of PI3K-gamma (P48736 whole entry, species assumed, the tested form may be a part): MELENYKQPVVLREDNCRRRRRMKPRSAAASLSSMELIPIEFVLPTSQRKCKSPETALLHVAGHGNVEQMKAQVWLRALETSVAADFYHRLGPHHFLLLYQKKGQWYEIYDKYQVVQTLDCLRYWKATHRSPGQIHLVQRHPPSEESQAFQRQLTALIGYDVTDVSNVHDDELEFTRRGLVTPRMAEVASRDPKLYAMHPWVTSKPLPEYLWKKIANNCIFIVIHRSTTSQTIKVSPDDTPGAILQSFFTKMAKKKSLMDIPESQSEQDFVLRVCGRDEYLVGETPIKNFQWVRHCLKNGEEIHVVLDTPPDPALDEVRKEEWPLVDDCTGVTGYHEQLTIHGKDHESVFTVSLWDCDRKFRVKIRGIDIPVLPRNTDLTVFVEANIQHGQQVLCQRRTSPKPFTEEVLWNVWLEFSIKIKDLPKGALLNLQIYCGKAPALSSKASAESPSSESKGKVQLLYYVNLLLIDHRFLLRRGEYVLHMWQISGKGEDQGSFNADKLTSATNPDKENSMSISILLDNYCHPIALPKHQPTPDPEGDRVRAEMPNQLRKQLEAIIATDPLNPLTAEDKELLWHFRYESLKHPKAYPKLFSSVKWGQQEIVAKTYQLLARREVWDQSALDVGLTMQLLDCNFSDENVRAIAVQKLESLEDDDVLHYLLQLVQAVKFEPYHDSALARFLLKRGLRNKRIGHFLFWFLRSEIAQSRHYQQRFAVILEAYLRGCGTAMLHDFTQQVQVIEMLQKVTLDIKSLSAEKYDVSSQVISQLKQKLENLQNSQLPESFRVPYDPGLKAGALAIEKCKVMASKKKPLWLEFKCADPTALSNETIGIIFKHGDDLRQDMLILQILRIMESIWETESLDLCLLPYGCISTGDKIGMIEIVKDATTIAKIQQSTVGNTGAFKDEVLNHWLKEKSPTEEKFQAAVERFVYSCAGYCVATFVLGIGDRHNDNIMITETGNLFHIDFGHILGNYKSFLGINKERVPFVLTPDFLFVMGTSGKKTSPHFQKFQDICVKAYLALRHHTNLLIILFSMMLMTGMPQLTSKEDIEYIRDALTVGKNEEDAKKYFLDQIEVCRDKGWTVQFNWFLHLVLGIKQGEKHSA

| SMILES | IC50 (human TOR) [nM] | IC50 (PI3K-alpha) [nM] | IC50 (PI3K-gamma) [nM] |
| --- | --- | --- | --- |
| CNC(=O)Nc1ccc2c(c1)C(=O)/C(=C/c1c(-c3c(C)nn(C)c3C)n(CCCC#N)c3ccc(OC)cc13)O2 [Compound 634, 1-[(2Z)-2-{[1-(3-cyanopropyl)-5-methoxy-2-(1,3,5-trimethyl-1H-pyrazol-4-yl)-1H-indol-3-yl]methylene}-3-oxo-2,3-dihydro-1-benzofuran-5-yl]-3-methylurea] | 19 | 2.1 | 16.5 |
| COc1ccc2[nH]c(-c3c(C)nn(C)c3C)c(/C=C3\Oc4ccc(NC(=O)Nc5cccnc5)cc4C3=O)c2c1 [Compound 635, 1-[(2Z)-2-{[5-methoxy-2-(1,3,5-trimethyl-1H-pyrazol-4-yl)-1H-indol-3-yl]methylene}-3-oxo-2,3-dihydro-1-benzofuran-5-yl]-3-pyridin-3-ylurea] | 5 | 0.5 | 2.5 |
| CNC(=O)Nc1ccc2c(c1)C(=O)/C(=C/c1c(N3CCN(C)CC3)n(CCN3CCN(C)CC3)c3ccc(OC)cc13)O2 [Compound 636, 1-[(2Z)-2-({5-methoxy-2-(4-methylpiperazin-1-yl)-1-[2-(4-methylpiperazin-1-yl)ethyl]-1H-indol-3-yl}methylene)-3-oxo-2,3-dihydro-1-benzofuran-5-yl]-3-methylurea] | 165 | 4 | 1010 |
| CNC(=O)Nc1ccc2c(c1)C(=O)/C(=C/c1c(-c3c(OC)cccc3OC)[nH]c3ccc(OC)cc13)O2 [Compound 637, 1-[(2Z)-2-{[2-(2,6-dimethoxyphenyl)-5-methoxy-1H-indol-3-yl]methylene}-3-oxo-2,3-dihydro-1-benzofuran-5-yl]-3-methylurea] | 35 | 2.2 | 18.5 |
| COc1ccc2c(c1)c(/C=C1\Oc3ccc(NC(=O)Nc4cccnc4)cc3C1=O)c(C1CCCC1)n2CCN1CCN(C)CC1 [Compound 638, 1-[(2Z)-2-({2-cyclopentyl-5-methoxy-1-[2-(4-methylpiperazin-1-yl)ethyl]-1H-indol-3-yl}methylene)-3-oxo-2,3-dihydro-1-benzofuran-5-yl]-3-pyridin-3-ylurea] | 8 | 3 | 214 |
| CNC(=O)Nc1cc2c(cc1C)O/C(=C\c1c(C)n(CCN3CCN(C)CC3)c3ccc(OC)cc13)C2=O [Compound 640, 1-[(2Z)-2-({5-methoxy-2-methyl-1-[2-(4-methylpiperazin-1-yl)ethyl]-1H-indol-3-yl}methylene)-6-methyl-3-oxo-2,3-dihydro-1-benzofuran-5-yl]-3-methylurea] | 1450 | 488 | 6040 |
| CNC(=O)Nc1ccc2c(c1)C(=O)/C(=C/c1c(C3CCCCC3)[nH]c3ccc(OC)cc13)O2 [Compound 641, 1-{(2Z)-2-[(2-cyclohexyl-5-methoxy-1H-indol-3-yl)methylene]-3-oxo-2,3-dihydro-1-benzofuran-5-yl}-3-methylurea] | 10 | 1.6 | 8 |
| CCn1cc(/C=C2\Oc3ccc(NC(=O)Nc4ccc(C(=O)N5CCN(C)CC5)cc4)cc3C2=O)c2cc(OC)ccc21 [Compound 642, 1-{(2Z)-2-[(1-ethyl-5-methoxy-1H-indol-3-yl)methylene]-3-oxo-2,3-dihydro-1-benzofuran-5-yl}-3-{4-[(4-methylpiperazin-1-yl)carbonyl]phenyl}urea] | 2600 | 0.95 | 8 |
| COc1ccc2[nH]cc(/C=C3\Oc4ccc(NC(=O)Nc5ccc(C(=O)N6CCN(C)CC6)cc5)cc4C3=O)c2c1 [Compound 643, 1-{(2Z)-2-[(5-methoxy-1H-indol-3-yl)methylene]-3-oxo-2,3-dihydro-1-benzofuran-5-yl}-3-{4-[(4-methylpiperazin-1-yl)carbonyl]phenyl}urea] | > 4000 | 0.9 | 4 |
| COc1ccc2[nH]c(C3CCCCC3)c(/C=C3\Oc4ccc(NC(=O)Nc5ccc(C(=O)N6CCN(C)CC6)cc5)cc4C3=O)c2c1 [Compound 644, 1-{(2Z)-2-[(2-cyclohexyl-5-methoxy-1H-indol-3-yl)methylene]-3-oxo-2,3-dihydro-1-benzofuran-5-yl}-3-{4-[(4-methylpiperazin-1-yl)carbonyl]phenyl}urea] | 33 | 0.3 | 2.5 |
| CCn1c(C2CCCCC2)c(/C=C2\Oc3ccc(NC(=O)Nc4ccc(C(=O)N5CCN(C)CC5)cc4)cc3C2=O)c2cc(OC)ccc21 [Compound 645, 1-{(2Z)-2-[(2-cyclohexyl-1-ethyl-5-methoxy-1H-indol-3-yl)methylene]-3-oxo-2,3-dihydro-1-benzofuran-5-yl}-3-{4-[(4-methylpiperazin-1-yl)carbonyl]phenyl}urea] | 185 | 1.8 | 55 |
| CNC(=O)Nc1ccc2c(c1)C(=O)/C(=C/c1c(-c3c(C)nn(C)c3C)n(CCN3CCN(C)CC3)c3ccc(OC)cc13)O2 [Compound 646, 1-[(2Z)-2-({5-methoxy-1-[2-(4-methylpiperazin-1-yl)ethyl]-2-(1,3,5-trimethyl-1H-pyrazol-4-yl)-1H-indol-3-yl}methylene)-3-oxo-2,3-dihydro-1-benzofuran-5-yl]-3-methylurea] | 13 | 2.5 | 68 |
| CNC(=S)Nc1ccc2c(c1)C(=O)/C(=C/c1c(C)n(CCN3CCN(C)CC3)c3ccc(OC)cc13)O2 [Compound 647, 1-[(2Z)-2-({5-methoxy-2-methyl-1-[2-(4-methylpiperazin-1-yl)ethyl]-1H-indol-3-yl}methylene)-3-oxo-2,3-dihydro-1-benzofuran-5-yl]-3-methylthiourea] | 1260 | 10 | 4850 |
| CNC(=O)Nc1ccc2c(c1)C(=O)/C(=C/c1c(-c3c(C)nn(C)c3C)n(CCNCCO)c3ccc(OC)cc13)O2 [Compound 648, 1-[(2Z)-2-{[1-{2-[(2-hydroxyethyl)amino]ethyl}-5-methoxy-2-(1,3,5-trimethyl-1H-pyrazol-4-yl)-1H-indol-3-yl]methylene}-3-oxo-2,3-dihydro-1-benzofuran-5-yl]-3-methylurea] | 9 | 2.95 | 37 |
| COc1ccc2c(c1)c(/C=C1\Oc3ccc(NC(=O)Nc4ccc(C(=O)N(C)CCN(C)C)cc4)cc3C1=O)c(C)n2CCN1CCN(C)CC1 [Compound 649, N-[2-(dimethylamino)ethyl]-4-({[(2Z)-2-({5-methoxy-2-methyl-1-[2-(4-methylpiperazin-1-yl)ethyl]-1H-indol-3-yl}methylene)-3-oxo-2,3-dihydro-1-benzofuran-5-yl]carbamoyl}amino)-N-methylbenzamide] | 31 | 0.4 | 19 |
| CCn1c(C)c(/C=C2\Oc3ccc(NC(=O)Nc4ccc(C(=O)N5CCC(N(C)C)CC5)cc4)cc3C2=O)c2cc(OC)ccc21 [Compound 650, 1-(4-{[4-(dimethylamino)piperidin-1-yl]carbonyl}phenyl)-3-{(2Z)-2-[(1-ethyl-5-methoxy-2-methyl-1H-indol-3-yl)methylene]-3-oxo-2,3-dihydro-1-benzofuran-5-yl}urea] | 31 | 0.4 | 3 |
| CCn1c(C)c(/C=C2\Oc3ccc(NC(=O)Nc4ccc(C(=O)C5CCN(C)CC5)cc4)cc3C2=O)c2cc(OC)ccc21 [Compound 651, 1-{(2Z)-2-[(1-ethyl-5-methoxy-2-methyl-1H-indol-3-yl)methylene]-3-oxo-2,3-dihydro-1-benzofuran-5-yl}-3-{4-[(1-methylpiperidin-4-yl)carbonyl]phenyl}urea] | 783 | 0.9 | 19.7 |
| CCn1c(C)c(/C=C2\Oc3ccc(NC(=O)Nc4ccc(N(C)CCN(C)C)cc4)cc3C2=O)c2cc(OC)ccc21 [Compound 652, 1-(4-{[2-(dimethylamino)ethyl](methyl)amino}phenyl)-3-{(2Z)-2-[(1-ethyl-5-methoxy-2-methyl-1H-indol-3-yl)methylene]-3-oxo-2,3-dihydro-1-benzofuran-5-yl}urea] | 135 | 3.5 | 18 |
| CCn1c(C)c(/C=C2\Oc3ccc(NC(=O)Nc4ccc(N(C)CCCN(C)C)cc4)cc3C2=O)c2cc(OC)ccc21 [Compound 653, 1-(4-{[3-(dimethylamino)propyl](methyl)amino}phenyl)-3-{(2Z)-2-[(1-ethyl-5-methoxy-2-methyl-1H-indol-3-yl)methylene]-3-oxo-2,3-dihydro-1-benzofuran-5-yl}urea] | 125 | 4 | 21 |
| CCn1c(C)c(/C=C2\Oc3ccc(NC(=O)Nc4ccc(OCCCN(C)C)cc4)cc3C2=O)c2cc(OC)ccc21 [Compound 654, 1-{4-[3-(dimethylamino)propoxy]phenyl}-3-{(2Z)-2-[(1-ethyl-5-methoxy-2-methyl-1H-indol-3-yl)methylene]-3-oxo-2,3-dihydro-1-benzofuran-5-yl}urea] | 88 | 1.5 | 7.5 |
| CCn1cc(/C=C2\Oc3ccc(NC(=O)Nc4ccc(C(=O)N(C)CCN(C)C)cc4)cc3C2=O)c2cc(OC)ccc21 [Compound 655, N-[2-(dimethylamino)ethyl]-4-[({(2Z)-2-[(1-ethyl-5-methoxy-1H-indol-3-yl)methylene]-3-oxo-2,3-dihydro-1-benzofuran-5-yl}carbamoyl)amino]-N-methylbenzamide] | 175 | 0.6 | 7.5 |
| CNC(=O)Nc1ccc2c(c1)C(=O)/C(=C/c1c(-c3c(C)nn(C)c3C)n(CCN3CCNCC3)c3ccc(OC)cc13)O2 [Compound 656, 1-[(2Z)-2-{[5-methoxy-1-(2-piperazin-1-ylethyl)-2-(1,3,5-trimethyl-1H-pyrazol-4-yl)-1H-indol-3-yl]methylene}-3-oxo-2,3-dihydro-1-benzofuran-5-yl]-3-methylurea] | 35 | 0.95 | 52 |
